Laboratory results taken from US20210402016A1, “RADIOLABELED BOMBESIN-DERIVED COMPOUNDS FOR IN VIVO IMAGING OF GASTRIN-RELEASING PEPTIDE RECEPTOR (GRPR) AND TREATMENT OF GRPR-RELATED DISORDERS” (Provincial Health Services Authority, priority 2018, published 2021).
Read-outs that look alike come from different tables or passages of the source.

Test: Biodistribution in PC-3 tumor-bearing NRG mice (Example 1)
Format: in vivo
Details: male, NRG (NOD.Cg-Rag1tm1Mom Il2rgtm1Wjl/SzJ), mouse, iv, 1.84 MBq, total radioactivity; for tissue uptake at 0.5 h: 30 min p.i.; for tissue uptake at 1 h: 60 min p.i.; for tissue uptake at 2 h: 120 min p.i.
Experimental: The mice were sacrificed by CO2 inhalation at 30 min, 1 h, and 2 h p.i. Blood was collected by cardiac puncture. Organs/tissues were harvested, rinsed with PBS, blotted dry, and weighed. The activity in tissues was assayed by gamma counter and expressed as the percentage injected dose per gram of tissue (% ID/g).

[1] = PC-3 tumor, read-out: Biodistribution PC-3 Tumor, Mean
[2] = adrenals, read-out: Biodistribution Adrenals, Mean
[3] = bone, read-out: Biodistribution Bone, Mean
[4] = brain, read-out: Biodistribution Brain, Mean
[5] = fat, read-out: Biodistribution Fat, Mean
[6] = intestine, read-out: Biodistribution Intestine, Mean
[7] = kidney, read-out: Biodistribution Kidney, Mean
[8] = liver, read-out: Biodistribution Liver, Mean
[9] = lung, read-out: Biodistribution Lung, Mean
[10] = muscle, read-out: Biodistribution Muscle, Mean
[11] = pancreas, read-out: Biodistribution Pancreas, Mean
[12] = seminal glands, read-out: Biodistribution Seminal glands, Mean
[13] = spleen, read-out: Biodistribution Spleen, Mean
[14] = testes, read-out: Biodistribution Testes, Mean
[15] = whole blood, read-out: Biodistribution Blood, Mean

Compound: CC(C)C[C@@H](CN1CCC[C@H]1C(N)=O)NC(=O)[C@H](Cc1c[nH]cn1)NC(=O)CNC(=O)[C@@H](NC(=O)[C@H](C)NC(=O)[C@H](Cc1c[nH]c2ccccc12)NC(=O)[C@H](CCC(N)=O)NC(=O)[C@@H](Cc1ccccc1)NC(=O)COCC(=O)Nc1ccc(CNC(=O)CN2CCN(CC(=O)O)CCN(CC(=O)O)CCN(CC(=O)O)CC2)cc1)C(C)C [^68Ga-ProBOMB1, metal not drawn]
- tissue uptake at 0.5 h [1]: 4.62 %ID/g
- tissue uptake at 1 h [1]: 8.17 %ID/g
- tissue uptake at 2 h [1]: 8.31 %ID/g
- tissue uptake at 0.5 h [2]: 0.95 %ID/g
- tissue uptake at 1 h [2]: 0.65 %ID/g
- tissue uptake at 2 h [2]: 1.23 %ID/g
- tissue uptake at 0.5 h [3]: 0.22 %ID/g
- tissue uptake at 1 h [3]: 0.26 %ID/g
- tissue uptake at 2 h [3]: 0.39 %ID/g
- tissue uptake at 0.5 h [4]: 0.02 %ID/g
- tissue uptake at 1 h [4]: 0.02 %ID/g
- tissue uptake at 2 h [4]: 0.03 %ID/g
- tissue uptake at 0.5 h [5]: 0.17 %ID/g
- tissue uptake at 1 h [5]: 0.06 %ID/g
- tissue uptake at 2 h [5]: 0.07 %ID/g
- tissue uptake at 0.5 h [6]: 2.63 %ID/g
- tissue uptake at 1 h [6]: 2.47 %ID/g
- tissue uptake at 2 h [6]: 1.68 %ID/g
- tissue uptake at 0.5 h [7]: 2.83 %ID/g
- tissue uptake at 1 h [7]: 1.4 %ID/g
- tissue uptake at 2 h [7]: 0.78 %ID/g
- tissue uptake at 0.5 h [8]: 1.93 %ID/g
- tissue uptake at 1 h [8]: 1.21 %ID/g
- tissue uptake at 2 h [8]: 0.75 %ID/g
- tissue uptake at 0.5 h [9]: 0.54 %ID/g
- tissue uptake at 1 h [9]: 0.35 %ID/g
- tissue uptake at 2 h [9]: 0.25 %ID/g
- tissue uptake at 0.5 h [10]: 0.36 %ID/g
- tissue uptake at 1 h [10]: 0.09 %ID/g
- tissue uptake at 2 h [10]: 0.08 %ID/g
- tissue uptake at 0.5 h [11]: 10.3 %ID/g
- tissue uptake at 1 h [11]: 4.68 %ID/g
- tissue uptake at 2 h [11]: 1.55 %ID/g
- tissue uptake at 0.5 h [12]: 0.17 %ID/g
- tissue uptake at 1 h [12]: 1.08 %ID/g
- tissue uptake at 2 h [12]: 0.43 %ID/g
- tissue uptake at 0.5 h [13]: 0.5 %ID/g
- tissue uptake at 1 h [13]: 0.44 %ID/g
- tissue uptake at 2 h [13]: 0.31 %ID/g
- tissue uptake at 0.5 h [14]: 0.31 %ID/g
- tissue uptake at 1 h [14]: 0.11 %ID/g
- tissue uptake at 2 h [14]: 0.09 %ID/g
- tissue uptake at 0.5 h [15]: 1.06 %ID/g
- tissue uptake at 1 h [15]: 0.4 %ID/g
- tissue uptake at 2 h [15]: 0.13 %ID/g
